Experimental data taken from patent publication US11945816B2, “Inhibitors of EGFR and/or HER2 and methods of use” (Dana-Farber Cancer Institute, Inc., priority 2017, dated 2024).

What was measured:
Assay type in all cases: cell-based
Conditions in all cases: MTS assay, 72 hours
[1] = molecular target: T1, wild-type EGFR transformed Ba/F3 cells (Homo sapiens, UniProt P00533); experiment: Proliferation inhibition assay, wild-type EGFR transformed Ba/F3 cells
T1 construct: expressed in transfected cells; host or cells: Ba/F3
T1 sequence (P00533 25-1210): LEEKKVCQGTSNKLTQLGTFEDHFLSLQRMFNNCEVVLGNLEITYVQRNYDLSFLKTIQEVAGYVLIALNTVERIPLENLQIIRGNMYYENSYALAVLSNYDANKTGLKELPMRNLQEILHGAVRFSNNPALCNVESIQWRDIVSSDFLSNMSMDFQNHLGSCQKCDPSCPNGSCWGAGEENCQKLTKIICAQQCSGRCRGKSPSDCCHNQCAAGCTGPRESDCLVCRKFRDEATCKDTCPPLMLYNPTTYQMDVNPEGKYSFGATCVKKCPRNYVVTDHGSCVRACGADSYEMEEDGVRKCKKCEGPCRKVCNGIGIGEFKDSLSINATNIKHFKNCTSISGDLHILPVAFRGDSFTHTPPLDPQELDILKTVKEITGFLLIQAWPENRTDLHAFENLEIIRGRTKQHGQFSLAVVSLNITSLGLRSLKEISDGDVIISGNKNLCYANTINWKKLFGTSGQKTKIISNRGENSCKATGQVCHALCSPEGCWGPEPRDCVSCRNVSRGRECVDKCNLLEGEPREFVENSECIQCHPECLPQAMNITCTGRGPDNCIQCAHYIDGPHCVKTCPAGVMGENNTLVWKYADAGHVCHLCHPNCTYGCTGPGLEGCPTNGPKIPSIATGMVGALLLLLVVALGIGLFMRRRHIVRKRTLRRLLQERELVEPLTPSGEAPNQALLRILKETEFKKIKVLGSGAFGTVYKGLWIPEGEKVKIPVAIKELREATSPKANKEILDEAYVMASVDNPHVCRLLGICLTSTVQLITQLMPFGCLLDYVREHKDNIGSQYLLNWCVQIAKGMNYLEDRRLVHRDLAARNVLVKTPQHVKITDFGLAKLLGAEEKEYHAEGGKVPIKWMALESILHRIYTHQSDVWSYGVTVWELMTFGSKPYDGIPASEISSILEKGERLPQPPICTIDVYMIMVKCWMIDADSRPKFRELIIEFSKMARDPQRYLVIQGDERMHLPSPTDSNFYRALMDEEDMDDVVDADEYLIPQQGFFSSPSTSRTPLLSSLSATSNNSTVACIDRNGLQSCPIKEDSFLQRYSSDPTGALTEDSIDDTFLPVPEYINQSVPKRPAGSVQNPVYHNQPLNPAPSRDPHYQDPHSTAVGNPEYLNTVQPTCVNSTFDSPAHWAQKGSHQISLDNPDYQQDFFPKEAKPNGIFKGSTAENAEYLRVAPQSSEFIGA
Description: (§1) Cell growth inhibition can be assessed by MTS assay or by Cell Titer Glo Luminescent Cell viability assay (Promega®). Cells are seeded and grow in culture plates before they are exposed to representative compounds of the application for various duration. The viability of the cells are then assessed. […] The growth curves can be fitted using a nonlinear regression model with sigmoidal dose response.
(§2) Cell growth inhibition was assessed by MTS assay for Ba/F3, DFCI58-229, and DFCI127c cells, or by Cell Titer Glo Luminescent Cell viability assay (Promega®) for DFC1362JC cells, 3000 Ba/F3 cells were seeded for per well in 96-well plates, and were exposed to representative compounds of the application (3.3 nM to 10 μM) for 72 hours. For DFCI58-229, DFCI127c, and DFC1362JC cells, 5000 cells were seeded per well. All experimental points included 6 to 12 wells. […] The growth curves were fitted using a nonlinear regression model with sigmoidal dose response.
(§3) Activities of representative compounds of the present application in inhibiting EGFR and HER2 were tested by MTS assay (for Ba/F3 cell, DFCI58-229 cell, and DFCI127c cells) or by CellTiter-Glot luminescent cell viability assay (for DFCI362JC cells). For assays with Ba/F3 cells, 3000 cells were seeded for per well in 96-well plates and were exposed to indicated compounds with a concentration of 3.3 to 10 μM for 72 hours. For assays with DFCI58-229 cell, DFCI127c cell, or DFCI362JC cell, 5000 cells were seeded per well in 96-well plates and were exposed to indicated compounds with a concentration of 3.3 to 10 μM for 72 hours.

[2] = molecular target: T2, EGFR InsGY (D770delinsGY) transformed Ba/F3 cells (Homo sapiens, UniProt P00533, D770Y/INS769G); experiment: Proliferation inhibition assay, EGFR InsGY transformed Ba/F3 cells
T2 construct: expressed in transfected cells; host or cells: Ba/F3
T2 sequence (P00533 with tags, fused parts or gaps INS769G/D770Y): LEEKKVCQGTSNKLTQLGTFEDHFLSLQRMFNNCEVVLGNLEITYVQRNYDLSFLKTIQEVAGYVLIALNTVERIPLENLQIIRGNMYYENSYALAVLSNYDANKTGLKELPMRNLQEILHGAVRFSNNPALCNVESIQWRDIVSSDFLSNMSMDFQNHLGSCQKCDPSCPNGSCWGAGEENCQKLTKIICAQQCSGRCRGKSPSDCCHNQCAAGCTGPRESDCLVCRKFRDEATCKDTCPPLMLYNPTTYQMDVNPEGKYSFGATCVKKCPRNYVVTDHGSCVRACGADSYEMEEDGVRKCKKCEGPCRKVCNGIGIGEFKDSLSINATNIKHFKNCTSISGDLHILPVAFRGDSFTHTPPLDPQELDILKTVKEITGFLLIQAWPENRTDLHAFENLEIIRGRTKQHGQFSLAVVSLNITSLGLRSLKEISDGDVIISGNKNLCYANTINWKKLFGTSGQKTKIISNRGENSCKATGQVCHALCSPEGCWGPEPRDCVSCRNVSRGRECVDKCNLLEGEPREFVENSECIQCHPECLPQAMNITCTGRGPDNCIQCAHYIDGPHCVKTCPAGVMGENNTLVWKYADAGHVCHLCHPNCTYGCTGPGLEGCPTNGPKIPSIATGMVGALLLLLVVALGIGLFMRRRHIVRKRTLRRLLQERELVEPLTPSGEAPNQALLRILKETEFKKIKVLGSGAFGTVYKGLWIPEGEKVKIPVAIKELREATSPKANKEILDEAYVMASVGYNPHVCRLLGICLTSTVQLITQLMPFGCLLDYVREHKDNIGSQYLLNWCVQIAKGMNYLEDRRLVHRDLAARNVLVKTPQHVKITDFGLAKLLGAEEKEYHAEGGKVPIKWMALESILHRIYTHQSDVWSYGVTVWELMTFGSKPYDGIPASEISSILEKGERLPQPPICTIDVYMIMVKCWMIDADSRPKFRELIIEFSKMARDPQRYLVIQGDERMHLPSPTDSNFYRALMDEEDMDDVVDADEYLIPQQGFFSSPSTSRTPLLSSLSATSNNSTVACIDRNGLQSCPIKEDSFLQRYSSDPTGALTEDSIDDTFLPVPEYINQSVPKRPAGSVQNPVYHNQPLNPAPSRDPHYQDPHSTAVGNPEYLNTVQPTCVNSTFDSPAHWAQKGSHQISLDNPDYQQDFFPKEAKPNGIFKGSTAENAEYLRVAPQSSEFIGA
Description: as §1, §2, §3

[3] = molecular target: T3, EGFR InsSVD (D770_N771insSVD) transformed Ba/F3 cells (Homo sapiens, UniProt P00533, INS770SVD); experiment: Proliferation inhibition assay, EGFR InsSVD transformed Ba/F3 cells
T3 construct: expressed in transfected cells; host or cells: Ba/F3
T3 sequence (P00533 with tags, fused parts or gaps INS770SVD): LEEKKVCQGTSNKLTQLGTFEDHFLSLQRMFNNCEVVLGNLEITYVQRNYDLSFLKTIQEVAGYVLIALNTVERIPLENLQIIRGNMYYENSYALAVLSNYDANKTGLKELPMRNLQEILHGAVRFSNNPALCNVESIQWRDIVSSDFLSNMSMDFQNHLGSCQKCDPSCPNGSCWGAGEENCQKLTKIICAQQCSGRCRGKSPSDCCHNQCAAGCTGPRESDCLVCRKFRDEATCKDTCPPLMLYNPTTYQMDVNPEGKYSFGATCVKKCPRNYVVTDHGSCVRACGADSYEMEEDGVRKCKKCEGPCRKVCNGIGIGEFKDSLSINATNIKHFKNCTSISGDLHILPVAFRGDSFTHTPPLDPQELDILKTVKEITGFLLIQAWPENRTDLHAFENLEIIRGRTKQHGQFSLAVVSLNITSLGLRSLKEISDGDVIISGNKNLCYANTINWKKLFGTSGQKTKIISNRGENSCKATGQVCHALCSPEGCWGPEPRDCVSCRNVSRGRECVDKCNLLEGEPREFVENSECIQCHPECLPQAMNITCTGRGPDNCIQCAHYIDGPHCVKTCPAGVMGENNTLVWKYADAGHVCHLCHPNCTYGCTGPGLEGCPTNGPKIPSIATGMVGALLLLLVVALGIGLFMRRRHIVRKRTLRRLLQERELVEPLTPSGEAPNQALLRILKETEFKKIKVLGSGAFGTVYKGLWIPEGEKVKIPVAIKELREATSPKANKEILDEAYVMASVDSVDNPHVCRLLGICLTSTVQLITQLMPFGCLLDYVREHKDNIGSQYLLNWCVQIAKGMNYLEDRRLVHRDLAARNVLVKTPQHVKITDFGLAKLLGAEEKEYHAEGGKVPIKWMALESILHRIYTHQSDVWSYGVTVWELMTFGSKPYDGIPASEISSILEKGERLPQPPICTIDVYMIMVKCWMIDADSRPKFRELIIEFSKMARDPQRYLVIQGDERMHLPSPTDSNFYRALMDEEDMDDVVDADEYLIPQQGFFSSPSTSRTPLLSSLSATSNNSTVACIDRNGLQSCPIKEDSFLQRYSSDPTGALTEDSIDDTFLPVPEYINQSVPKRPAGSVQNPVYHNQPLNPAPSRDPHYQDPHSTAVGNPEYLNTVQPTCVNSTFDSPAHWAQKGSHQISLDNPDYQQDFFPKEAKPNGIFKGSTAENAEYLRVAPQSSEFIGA
Description: as §1, §2, §3

[4] = molecular target: T4, EGFR InsH transformed Ba/F3 cells (Homo sapiens, UniProt P00533, DUP773-773); experiment: Proliferation inhibition assay, EGFR InsH transformed Ba/F3 cells
T4 construct: expressed in transfected cells; host or cells: Ba/F3
Description: as §1, §2, §3

[5] = molecular target: T5, wild-type HER2 transformed Ba/F3 cells (Homo sapiens, UniProt P04626); experiment: Proliferation inhibition assay, wild-type HER2 transformed Ba/F3 cells
T5 construct: expressed in transfected cells; host or cells: Ba/F3
T5 sequence (P04626 23-1255): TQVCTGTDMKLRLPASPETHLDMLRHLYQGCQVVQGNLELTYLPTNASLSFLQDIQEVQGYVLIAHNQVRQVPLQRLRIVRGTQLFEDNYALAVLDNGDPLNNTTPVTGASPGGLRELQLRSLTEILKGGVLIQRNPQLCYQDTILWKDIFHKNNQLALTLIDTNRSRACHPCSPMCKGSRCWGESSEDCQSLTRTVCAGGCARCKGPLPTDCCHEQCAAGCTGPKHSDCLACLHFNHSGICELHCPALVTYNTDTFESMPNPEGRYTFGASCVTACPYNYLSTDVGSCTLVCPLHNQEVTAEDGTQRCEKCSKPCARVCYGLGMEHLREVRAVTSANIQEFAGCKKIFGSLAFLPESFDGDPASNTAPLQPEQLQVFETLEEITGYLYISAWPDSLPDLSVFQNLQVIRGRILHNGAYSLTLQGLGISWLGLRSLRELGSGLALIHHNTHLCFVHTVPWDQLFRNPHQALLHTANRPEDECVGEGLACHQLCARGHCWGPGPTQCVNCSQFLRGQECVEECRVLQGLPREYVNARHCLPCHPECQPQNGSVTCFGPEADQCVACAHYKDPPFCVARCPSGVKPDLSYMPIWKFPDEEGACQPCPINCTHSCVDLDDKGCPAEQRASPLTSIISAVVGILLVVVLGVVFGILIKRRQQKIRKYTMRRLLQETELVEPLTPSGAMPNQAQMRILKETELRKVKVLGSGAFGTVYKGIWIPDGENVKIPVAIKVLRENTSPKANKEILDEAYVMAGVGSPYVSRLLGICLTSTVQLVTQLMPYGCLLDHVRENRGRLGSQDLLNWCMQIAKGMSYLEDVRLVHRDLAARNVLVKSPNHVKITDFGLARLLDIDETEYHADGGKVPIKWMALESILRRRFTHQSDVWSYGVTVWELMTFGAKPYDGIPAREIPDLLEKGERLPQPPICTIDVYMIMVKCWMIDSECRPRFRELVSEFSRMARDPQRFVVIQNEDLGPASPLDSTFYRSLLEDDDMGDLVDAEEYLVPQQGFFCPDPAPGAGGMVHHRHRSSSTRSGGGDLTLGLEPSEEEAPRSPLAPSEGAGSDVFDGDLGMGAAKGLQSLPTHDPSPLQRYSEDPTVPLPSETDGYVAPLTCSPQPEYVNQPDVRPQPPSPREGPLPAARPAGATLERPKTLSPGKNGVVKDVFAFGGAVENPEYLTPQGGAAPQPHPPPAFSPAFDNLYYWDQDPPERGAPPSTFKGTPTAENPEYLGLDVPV
Description: as §1, §2, §3

[6] = molecular target: T6, HER2 InsYVMA (A775_G776insYVMA) transformed Ba/F3 cells (Homo sapiens, UniProt P04626, INS775YVMA); experiment: Proliferation inhibition assay, HER2 InsYVMA transformed Ba/F3 cells
T6 construct: expressed in transfected cells; host or cells: Ba/F3
Description: as §1, §2, §3

[7] = molecular target: T7, HER2 InsWLV transformed Ba/F3 cells (Homo sapiens, UniProt P04626, INS773WL/M774V); experiment: Proliferation inhibition assay, HER2 InsWLV transformed Ba/F3 cells
T7 construct: expressed in transfected cells; host or cells: Ba/F3
Description: as §1, §2, §3

Row | SMILES | EC50 [1] [nM] | EC50 [2] [nM] | EC50 [3] [nM] | EC50 [4] [nM] | EC50 ([5]; Table 9 key) [nM] | EC50 ([6]; Table 9 key) [nM] | EC50 ([7]; Table 9 key) [nM] | EC50 ([5]; Table 10 key) [nM] | EC50 ([6]; Table 10 key) [nM] | EC50 ([7]; Table 10 key) [nM]
1 | C=CC(=O)Nc1cc(Nc2ncc3cc(Oc4ccc(F)cc4F)c(=O)n(C)c3n2)ccc1N(C)CCN(C)C [Compound 116] | < 200 | – | < 200 | < 200 | – | – | – | < 200 | < 200 | < 200
2 | C=CC(=O)N1C[C@H](Cn2c(=O)c(Oc3ccc(F)cc3F)cc3cnc(Nc4cnn(C)c4)nc32)[C@@H](OC)C1 [Compound 102] | < 200 | < 200 | < 200 | 200 to 600 | – | – | – | < 200 | < 200 | < 200
3 | C=CC(=O)Nc1cc(Nc2ncc3cc(Oc4ccc(F)cc4F)c(=O)n(C)c3n2)ncc1N(C)CCN(C)C [Compound 105] | 200 to 600 | > 1000 | > 1000 | > 1000 | – | – | – | 200 to 600 | 600 to 1000 | 600 to 1000
4 | C=CC(=O)N1C[C@H](Cn2c(=O)c(Oc3ccc(F)cc3F)cc3cnc(NC(C)=O)nc32)[C@@H](OC)C1 [Compound 112] | < 200 | – | < 200 | – | – | – | – | 200 to 600 | 200 to 600 | –
5 | C=CC(=O)Nc1cccc(-n2c(=O)c(Oc3ccc(Cl)cc3F)cc3cnc(Nc4cnn(C)c4)nc32)c1 [Compound 89] | < 200 | – | < 200 | 200 to 600 | – | – | – | < 200 | < 200 | < 200
6 | C=CC(=O)Nc1cccc(-n2c(=O)c(Oc3c(F)cc(F)cc3F)cc3cnc(Nc4cnn(C)c4)nc32)c1 [Compound 82] | < 200 | < 200 | < 200 | < 200 | – | – | – | < 200 | < 200 | < 200
7 | C=CC(=O)Nc1cc(Nc2ncc3cc(Oc4ccc(F)cc4F)c(=O)n(CC(F)(F)F)c3n2)c(OC)cc1N(C)CCN(C)C [Compound 85] | < 200 | < 200 | < 200 | < 200 | – | – | – | < 200 | < 200 | < 200
8 | C=CC(=O)Nc1cc(Nc2ncc3cc(Oc4ccc(F)cc4F)c(=O)n(C)c3n2)ccc1CCCN(C)C [Compound 117] | < 200 | – | 200 to 600 | > 1000 | – | – | – | < 200 | < 200 | 200 to 600
9 | C=CC(=O)Nc1cccc(-n2c(=O)c(Oc3ccc(F)c(Cl)c3)cc3cnc(Nc4cnn(C)c4)nc32)c1 [Compound 88] | < 200 | – | < 200 | 200 to 600 | – | – | – | < 200 | < 200 | 200 to 600
10 | C=CC(=O)Nc1cc(Nc2ncc3cc(Oc4ccc(F)cc4F)c(=O)[nH]c3n2)c(OC)cc1N(C)CCN(C)C [Compound 99] | < 200 | < 200 | < 200 | 200 to 600 | – | – | – | < 200 | < 200 | < 200
11 | C=CC(=O)Nc1ccc(OC)c(Nc2ncc3cc(Oc4ccc(F)cc4F)c(=O)n(CCN(C)C)c3n2)c1 [Compound 94] | < 200 | < 200 | 200 to 600 | > 1000 | – | – | – | < 200 | < 200 | 200 to 600
12 | C=CC(=O)Nc1cccc(-n2c(=O)c(Oc3ccc(F)cc3F)cc3cnc(N)nc32)c1 [Compound 106] | < 200 | < 200 | < 200 | 200 to 600 | – | – | – | < 200 | < 200 | < 200
13 | C=CC(=O)Nc1cccc(-n2c(=O)c(Oc3cc(F)c(F)cc3F)cc3cnc(Nc4cnn(C)c4)nc32)c1 [Compound 87] | < 200 | – | < 200 | 600 to 1000 | – | – | – | < 200 | < 200 | < 200
14 | C=CC(=O)N1C[C@H](Cn2c(=O)c(Oc3ccc(F)cc3F)cc3cnc(N)nc32)[C@@H](OC)C1 [Compound 110] | 200 to 600 | – | < 200 | – | – | – | – | < 200 | < 200 | –

Other lines, results leading:

Row | EC50 [1] [nM] | EC50 [2] [nM] | EC50 [3] [nM] | EC50 [4] [nM] | EC50 ([5]; Table 9 key) [nM] | EC50 ([6]; Table 9 key) [nM] | EC50 ([7]; Table 9 key) [nM] | EC50 ([5]; Table 10 key) [nM] | EC50 ([6]; Table 10 key) [nM] | EC50 ([7]; Table 10 key) [nM] | SMILES
15 | < 200 | < 200 | < 200 | 600 to 1000 | < 100 | < 100 | 100 to 250 | – | – | – | C=CC(=O)Nc1cc(Nc2ncc3cc(Nc4ccc(F)cc4F)c(=O)n(C)c3n2)c(OC)cc1OCCN(C)C [Compound 142]
16 | < 200 | < 200 | < 200 | 200 to 600 | – | – | – | < 200 | < 200 | < 200 | C=CC(=O)Nc1cc(Nc2ncc3cc(Oc4ccc(F)cc4Cl)c(=O)n(C)c3n2)c(OC)cc1N(C)CCN(C)C [Compound 134]
17 | < 200 | < 200 | < 200 | 200 to 600 | < 100 | < 100 | < 100 | – | – | – | C=CC(=O)Nc1cc(Nc2ncc3cc(Nc4ccc(F)cc4F)c(=O)n(C)c3n2)c(OC)cc1N(C)CCN(C)C [Compound 141]
18 | – | – | – | – | – | – | – | < 200 | < 200 | < 200 | C=CC(=O)Nc1cc(Nc2ncc3cc(Oc4ccc(F)c(Cl)c4)c(=O)n(C)c3n2)c(OC)cc1N(C)CCN(C)C [Compound 137]
19 | < 200 | – | < 200 | < 200 | – | – | – | < 200 | < 200 | < 200 | C=CC(=O)Nc1cc(Nc2ncc3cc(Oc4ccc(F)cc4)c(=O)n(C)c3n2)c(OC)cc1N(C)CCN(C)C [Compound 130]
20 | < 200 | 200 to 600 | 200 to 600 | 600 to 1000 | < 100 | < 100 | 250 to 500 | – | – | – | C=CC(=O)Nc1cc(Nc2ncc3cc(Oc4ccc(F)cc4F)c(N)nc3n2)c(OC)cc1N(C)CCN(C)C [Compound 140]
21 | < 200 | – | 200 to 600 | > 1000 | – | – | – | < 200 | < 200 | 600 to 1000 | C=CC(=O)Nc1cc(Nc2ncc3cc(Oc4ccc(F)cc4)c(=O)n(C)c3n2)ccc1N(C)CCN(C)C [Compound 129]
22 | < 200 | – | < 200 | 200 to 600 | – | – | – | < 200 | < 200 | < 200 | C=CC(=O)Nc1cc(Nc2ncc3cc(Oc4ccc(C)cc4)c(=O)n(C)c3n2)c(OC)cc1N(C)CCN(C)C [Compound 131]
23 | < 200 | – | < 200 | < 200 | – | – | – | < 200 | < 200 | < 200 | C=CC(=O)Nc1cc(Nc2ncc3cc(Oc4ccccc4)c(=O)n(C)c3n2)c(OC)cc1N(C)CCN(C)C [Compound 132]
24 | > 1000 | – | > 1000 | – | – | – | – | > 1000 | > 1000 | – | C=CC(=O)Nc1cc(Nc2ncc3cc(Oc4ccc(F)cc4F)c(=O)n(C)c3n2)c(OC)cc1C1CCNCC1 [Compound 127]
25 | < 200 | < 200 | < 200 | 200 to 600 | – | – | – | < 200 | < 200 | < 200 | C=CC(=O)Nc1cc(Nc2ncc3cc(Oc4cc(F)c(F)cc4F)c(=O)n(C)c3n2)c(OC)cc1N(C)CCN(C)C [Compound 135]
26 | 200 to 600 | – | 600 to 1000 | – | – | – | – | 200 to 600 | < 200 | – | C=CC(=O)Nc1cc(Nc2ncc3cc(Oc4ccc(F)cc4F)c(=O)n(C)c3n2)c(OC)cc1C1CCN(C)CC1 [Compound 128]
